Literature values in patent publication US4340609A, “Amidinourea derivative veterinary compositions for suppression of parasitemia” (William H. Rorer, Inc., priority 1980, dated 1982).

Settings: triazine form/metabolite, cited from earlier work; for usefulness in therapy: malaria

Row | Structure (SMILES) | excretion from the body | usefulness in therapy
1 | [H]/N=C(\N/C(=N/[H])Nc1ccc(Cl)cc1)NC(C)C [chloroguanide] | rapidly excreted from the body when in its triazine form | little or no usefulness
2 | CC1(C)N=C(N)N=C(N)N1c1ccc(Cl)cc1 [triazine metabolite of chloroquanide] | rapid excretion from the body | little or no usefulness in the therapy of humans and monkeys
